Here are results for 19 compounds from US9125913B2, “Bcl-2-selective apoptosis-inducing agents for the treatment of cancer and immune diseases” (AbbVie Inc., priority 2008, dated 2015).

The assay concerns GST-Bcl-2. As to the kind of experiment: TR-FRET binding assay, Bcl-2. The conditions noted are these: TR-FRET Ki values. The gist of the method:
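Ki values come from Wang's competitive-binding equation applied to TR-FRET signal (excitation 340/35 nm; emission 520/525 nm F-Bak peptide, 495/510 nm Tb antibody). Protein, probe and antibody incubated with compound 3 h at room temperature; dilution series began at 50 μM as 2× stock in 10% DMSO.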
As to `CC1(C)CCC(CN2CCN(c3ccc(C(=O)NS(=O)(=O)c4ccc(NCCCN5CCS(=O)(=O)CC5)c([N+](=O)[O-])c4)c(Oc4ccc5[nH]ccc5c4)c3)CC2)=C(c2ccc(Cl)cc2)C1` [EXAMPLE 266, 4-(4-{[2-(4-chlorophenyl)-4,4-dimethylcyclohex-1-en-1-yl]methyl}piperazin-1-yl)-N-[(4-{[3-(1,1-dioxidothiomorpholin-4-yl)propyl]amino}-3-nitrophenyl)sulfonyl]-2-(1H-indol-5-yloxy)benzamide], the “Binding selectivity ratio (Bcl-XL Ki/Bcl-2 Ki)” value (“Binding selectivity ratio” for short) is listed as above 3607.7.
On to `CC1(C)CCC(CN2CCN(c3ccc(C(=O)NS(=O)(=O)c4ccc(NC5CCN(CCCO)CC5)c([N+](=O)[O-])c4)c(Oc4cccc5[nH]ccc45)c3)CC2)=C(c2ccc(Cl)cc2)C1` [EXAMPLE 195, 4-(4-{[2-(4-chlorophenyl)-4,4-dimethylcyclohex-1-en-1-yl]methyl}piperazin-1-yl)-N-[(4-{[1-(3-hydroxypropyl)piperidin-4-yl]amino}-3-nitrophenyl)sulfonyl]-2-(1H-indol-4-yloxy)benzamide], for which the “Binding selectivity ratio” value was found to be 170.2.
Under `CC1(C)CCC(CN2CCN(c3ccc(C(=O)NS(=O)(=O)c4ccc(NCC5CCOCC5)c(C#N)c4)c(Oc4cccc5[nH]ccc45)c3)CC2)=C(c2ccc(Cl)cc2)C1` [EXAMPLE 366, 4-(4-{[2-(4-chlorophenyl)-4,4-dimethylcyclohex-1-en-1-yl]methyl}piperazin-1-yl)-N-({3-cyano-4-[(tetrahydro-2H-pyran-4-ylmethyl)amino]phenyl}sulfonyl)-2-(1H-indol-4-yloxy)benzamide] stands above 121.0.
Under `C[C@@H](c1ccccc1-c1ccc(Cl)cc1)N1CCN(c2ccc(C(=O)NS(=O)(=O)c3ccc(NCC4CCOCC4)c([N+](=O)[O-])c3)c(Oc3cccc4[nH]ccc34)c2)CC1` [EXAMPLE 256, 4-{4-[(1S)-1-(4′-chloro-1,1′-biphenyl-2-yl)ethyl]piperazin-1-yl}-2-(1H-indol-4-yloxy)-N-({3-nitro-4-[(tetrahydro-2H-pyran-4-ylmethyl)amino]phenyl}sulfonyl)benzamide] stands above 5519.8; under `CC1(C)CCC(CN2CCN(c3ccc(C(=O)NS(=O)(=O)c4ccc(NCCC#N)c([N+](=O)[O-])c4)c(Oc4cccc5[nH]ccc45)c3)CC2)=C(c2ccc(Cl)cc2)C1` [EXAMPLE 320, 4-(4-{[2-(4-chlorophenyl)-4,4-dimethylcyclohex-1-en-1-yl]methyl}piperazin-1-yl)-N-({4-[(2-cyanoethyl)amino]-3-nitrophenyl}sulfonyl)-2-(1H-indol-4-yloxy)benzamide], 103.6.
Under `CC1(C)CCC(CN2CCN(c3ccc(C(=O)NS(=O)(=O)c4ccc(N5CCOCC5)c([N+](=O)[O-])c4)c(Oc4ccc5[nH]ccc5c4)c3)CC2)=C(c2ccc(Cl)cc2)C1` [EXAMPLE 270, 4-(4-{[2-(4-chlorophenyl)-4,4-dimethylcyclohex-1-en-1-yl]methyl}piperazin-1-yl)-2-(1H-indol-5-yloxy)-N-[(4-morpholin-4-yl-3-nitrophenyl)sulfonyl]benzamide] stands above 199.1; under `COCCOCCNc1ccc(S(=O)(=O)NC(=O)c2ccc(N3CCN(CC4=C(c5ccc(Cl)cc5)CC(C)(C)CC4)CC3)cc2Oc2ccc3[nH]ccc3c2)cc1[N+](=O)[O-]` [EXAMPLE 298, 4-(4-{[2-(4-chlorophenyl)-4,4-dimethylcyclohex-1-en-1-yl]methyl}piperazin-1-yl)-2-(1H-indol-5-yloxy)-N-[(4-{[2-(2-methoxyethoxy)ethyl]amino}-3-nitrophenyl)sulfonyl]benzamide], 1415.7; under `CN1CCN(Nc2ccc(S(=O)(=O)NC(=O)c3ccc(N4CCN(CC5=C(c6ccc(Cl)cc6)CC(C)(C)CC5)CC4)cc3Oc3cccc4[nH]ccc34)cc2[N+](=O)[O-])CC1` [EXAMPLE 190, 4-(4-{[2-(4-chlorophenyl)-4,4-dimethylcyclohex-1-en-1-yl]methyl}piperazin-1-yl)-2-(1H-indol-4-yloxy)-N-({4-[(4-methylpiperazin-1-yl)amino]-3-nitrophenyl}sulfonyl)benzamide], 189.6.
Regarding `O=C(NS(=O)(=O)c1ccc(NC2CCN(C3CCOCC3)CC2)c([N+](=O)[O-])c1)c1ccc(N2CCN(CC3=C(c4ccc(Cl)cc4)CCC(O)C3)CC2)cc1Oc1ccc2[nH]ccc2c1` (stereo not shown) [EXAMPLE 225, 4-(4-{[2-(4-chlorophenyl)-5-hydroxycyclohex-1-en-1-yl]methyl}piperazin-1-yl)-2-(1H-indol-5-yloxy)-N-({3-nitro-4-[(1-tetrahydro-2H-pyran-4-ylpiperidin-4-yl)amino]phenyl}sulfonyl)benzamide], the “Binding selectivity ratio” value was above 348.2.
For the compound `O=C(NS(=O)(=O)c1ccc(OCC2CCOCC2)c([N+](=O)[O-])c1)c1ccc(N2CCN(Cc3ccc(C(F)(F)F)cc3-c3ccc(Cl)cc3)CC2)cc1Oc1ccc2[nH]ccc2c1` [EXAMPLE 340, 4-(4-{[4′-chloro-5-(trifluoromethyl)-1,1′-biphenyl-2-yl]methyl}piperazin-1-yl)-2-(1H-indol-5-yloxy)-N-{[3-nitro-4-(tetrahydro-2H-pyran-4-ylmethoxy)phenyl]sulfonyl}benzamide], the “Binding selectivity ratio” value is above 86.9.
The result for `CC1(C)CCC(CN2CCN(c3ccc(C(=O)NS(=O)(=O)c4ccc(NC5CCN(CC6CC6)CC5)c([N+](=O)[O-])c4)c(Oc4ccc5[nH]ccc5c4)c3)CC2)=C(c2ccc(Cl)cc2)C1` [EXAMPLE 214, 4-(4-{[2-(4-chlorophenyl)-4,4-dimethylcyclohex-1-en-1-yl]methyl}piperazin-1-yl)-N-[(4-{[1-(cyclopropylmethyl)piperidin-4-yl]amino}-3-nitrophenyl)sulfonyl]-2-(1H-indol-5-yloxy)benzamide] reads 776.6; that for `CC1(C)CCC(CN2CCN(c3ccc(C(=O)NS(=O)(=O)c4ccc(NCCCn5ccnc5)c([N+](=O)[O-])c4)c(Oc4ccc5[nH]ccc5c4)c3)CC2)=C(c2ccc(Cl)cc2)C1` [EXAMPLE 377, 4-(4-{[2-(4-chlorophenyl)-4,4-dimethylcyclohex-1-en-1-yl]methyl}piperazin-1-yl)-N-[(4-{[3-(1H-imidazol-1-yl)propyl]amino}-3-nitrophenyl)sulfonyl]-2-(1H-indol-5-yloxy)benzamide], 2317.4; that for `CC1(C)CCC(CN2CCN(c3ccc(C(=O)NS(=O)(=O)c4ccc(NCC5(N)CCCCC5)c([N+](=O)[O-])c4)c(Oc4ccc5[nH]ccc5c4)c3)CC2)=C(c2ccc(Cl)cc2)C1` [EXAMPLE 250, N-[(4-{[(1-aminocyclohexyl)methyl]amino}-3-nitrophenyl)sulfonyl]-4-(4-{[2-(4-chlorophenyl)-4,4-dimethylcyclohex-1-en-1-yl]methyl}piperazin-1-yl)-2-(1H-indol-5-yloxy)benzamide], 811.
Under `CC1(C)CCC(CN2CCN(c3ccc(C(=O)NS(=O)(=O)c4ccc(NCC5CCOCC5)c([N+](=O)[O-])c4)c(Oc4cccc5[nH]ncc45)c3)CC2)=C(c2ccc(Cl)cc2)C1` [EXAMPLE 400, 4-(4-{[2-(4-chlorophenyl)-4,4-dimethylcyclohex-1-en-1-yl]methyl}piperazin-1-yl)-2-(1H-indazol-4-yloxy)-N-({3-nitro-4-[(tetrahydro-2H-pyran-4-ylmethyl)amino]phenyl}sulfonyl)benzamide] stands above 3643.8.
For the compound `CC1(C)CCC(CN2CCN(c3ccc(C(=O)NS(=O)(=O)c4ccc(NCC5CN(S(C)(=O)=O)CCO5)c([N+](=O)[O-])c4)c(Oc4cccc5[nH]cnc45)c3)CC2)=C(c2ccc(Cl)cc2)C1` (stereo not shown) [EXAMPLE 458, 2-(1H-benzimidazol-4-yloxy)-4-(4-{[2-(4-chlorophenyl)-4,4-dimethylcyclohex-1-en-1-yl]methyl}piperazin-1-yl)-N-{[4-({[4-(methylsulfonyl)morpholin-2-yl]methyl}amino)-3-nitrophenyl]sulfonyl}benzamide], the “Binding selectivity ratio” value worked out at 237.24.
For `CC1(C)CCC(CN2CCN(c3ccc(C(=O)NS(=O)(=O)c4ccc(NC5CCN(C6CCOCC6)CC5)c([N+](=O)[O-])c4)c(Oc4cccc5[nH]cnc45)c3)CC2)=C(c2ccc(Cl)cc2)C1` [EXAMPLE 417, 2-(1H-benzimidazol-4-yloxy)-4-(4-{[2-(4-chlorophenyl)-4,4-dimethylcyclohex-1-en-1-yl]methyl}piperazin-1-yl)-N-({3-nitro-4-[(1-tetrahydro-2H-pyran-4-ylpiperidin-4-yl)amino]phenyl}sulfonyl)benzamide], the “Binding selectivity ratio” value was 87.06.
Under `CC1(C)CCC(CN2CCN(c3ccc(C(=O)NS(=O)(=O)c4cnc(OCC5(F)CCOCC5)c(Cl)c4)c(Oc4cccc5[nH]ccc45)c3)CC2)=C(c2ccc(Cl)cc2)C1` [EXAMPLE 405, N-({5-chloro-6-[(4-fluorotetrahydro-2H-pyran-4-yl)methoxy]pyridin-3-yl}sulfonyl)-4-(4-{[2-(4-chlorophenyl)-4,4-dimethylcyclohex-1-en-1-yl]methyl}piperazin-1-yl)-2-(1H-indol-4-yloxy)benzamide] stands 1395; under `CC1(C)CCC(CN2CCN(c3ccc(C(=O)NS(=O)(=O)c4ccc(N[C@H]5CC[C@H](N6CCOCC6)CC5)c([N+](=O)[O-])c4)c(Oc4cccc5[nH]cnc45)c3)CC2)=C(c2ccc(Cl)cc2)C1` [EXAMPLE 452, Trans-2-(1H-benzimidazol-4-yloxy)-4-(4-{[2-(4-chlorophenyl)-4,4-dimethylcyclohex-1-en-1-yl]methyl}piperazin-1-yl)-N-({4-[(4-morpholin-4-ylcyclohexyl)amino]-3-nitrophenyl}sulfonyl)benzamide], 600.39.
As to `O=C(NS(=O)(=O)c1ccc(NCCCN2CCOCC2)c([N+](=O)[O-])c1)c1ccc(N2CCN(Cc3ccccc3-c3ccc(Cl)cc3)CC2)cc1Oc1ccc2ccccc2c1` [Example 36, 4-{4-[(4′-chloro-1,1′-biphenyl-2-yl)methyl]piperazin-1-yl}-N-({4-[(3-morpholin-4-ylpropyl)amino]-3-nitrophenyl}sulfonyl)-2-(2-naphthyloxy)benzamide], the “Binding selectivity ratio” value stood at 11.3.
